# Test system: human coagulation factor XI protein
# Assay: In vivo activity in human coagulation factor XI model mice (Experimental Example 3), plasma FXI protein by ELISA
# Conditions: humanized mice
# Description: The humanized mice used in this experimental example were purchased from Cyagen Biosciences Co., Ltd. The humanized mice were randomly divided into groups, with 4 mice per group. The compound and PBS control (pH = 7.2) were administered to each group of mice, respectively. The day of the first administration was designated as day 0 of the experiment. The corresponding compound solutions were administered via a single subcutaneous injection based on animal body weight, at administration doses of 1 mg/kg and 5 mg/kg. PBS control mice were each administered PBS, with an administration volume of 10 mL/kg body weight. Orbital blood was collected before administration and on day 7, day 14, day 28, day 42, and day 63 after administration. Plasma was separated, and the content of the coagulation factor XI protein in the plasma was measured at each time point.
# About 165 µL of blood was collected from the orbital veins for plasma collection. A 3.8% trisodium citrate anticoagulant was added to the whole blood in a volume ratio of 1:9 (anticoagulant:[…], v/v), and the mixture was centrifuged at 3000 rpm at 20 °C for 15 min to collect plasma. The content of the coagulation factor XI protein in the plasma obtained from the above groups of mice (test groups administered the compound and PBS control group) was measured using a Human Coagulation Factor XI ELISA kit (Sigma, Cat. No. RAB1385-1KT).
# The coagulation factor XI protein inhibition rate was calculated according to the following equation: [formula]
# Table 11 lists the measurement of FXI protein content in animal plasma before and on day 7, day 14, day 28, day 42, and day 63 after a single subcutaneous administration of siRNA ligand conjugates (TD01M01L01, TD02M01L01) at doses of 1 mg/kg and 5 mg/kg to humanized homozygous mice. […] Table 11. In vivo experimental design
substance,measurement,setting,value
"TD02M02L01: dsRNA ligand conjugate: TD02M02 with L01 (GalNAc) ligand at 3' end of sense strand SEQ ID NO 35; antisense SEQ ID NO 36 (sense GGATGATTTTCTTATATCA; antisense TGATATAAGAAAATCATCCTG; GalNAc L01 ligand at sense 3' end, 2'-OMe/2'-F, pattern not given here)",Relative inhibition rate (%) of FXI protein,"single subcutaneous 1 mg/kg, D7",66.7%
same,Relative inhibition rate (%) of FXI protein,"single subcutaneous 1 mg/kg, D14",70.2%
same,Relative inhibition rate (%) of FXI protein,"single subcutaneous 1 mg/kg, D28",58.6%
same,Relative inhibition rate (%) of FXI protein,"single subcutaneous 1 mg/kg, D42",70.5%
same,Relative inhibition rate (%) of FXI protein,"single subcutaneous 1 mg/kg, D63",47.0%
same,Relative inhibition rate (%) of FXI protein,"single subcutaneous 5 mg/kg, D7",91.5%
same,Relative inhibition rate (%) of FXI protein,"single subcutaneous 5 mg/kg, D14",93.5%
same,Relative inhibition rate (%) of FXI protein,"single subcutaneous 5 mg/kg, D28",88.4%
same,Relative inhibition rate (%) of FXI protein,"single subcutaneous 5 mg/kg, D42",86.9%
same,Relative inhibition rate (%) of FXI protein,"single subcutaneous 5 mg/kg, D63",66.3%

# Reference: patent EP4772634A1, “DOUBLE-STRANDED RNA TARGETING COAGULATION FACTOR XI” (Chia Tai Tianqing Pharmaceutical Group Co., Ltd., priority 2023, dated 2025)
